From patent publication US6184422A, “Cyclohexanediol derivatives” (priority 1998, dated 2001)
pEC50: −log10 of the molar value.

How the values were obtained:
[1] = biological target: T1, human VDR (Homo sapiens, UniProt P11473); assay: VDR Activation (transcription activation assay in COS cells, luciferase reporter); assay type: cell-based; details: COS cells cotransfected with human VDR and VDRE3/luciferase reporter; read-out: VDR act (ED50, nanomolar)
T1 construct: expressed in transfected cells; host or cells: COS cells, expression vector pSG5
T1 sequence (P11473 1-427): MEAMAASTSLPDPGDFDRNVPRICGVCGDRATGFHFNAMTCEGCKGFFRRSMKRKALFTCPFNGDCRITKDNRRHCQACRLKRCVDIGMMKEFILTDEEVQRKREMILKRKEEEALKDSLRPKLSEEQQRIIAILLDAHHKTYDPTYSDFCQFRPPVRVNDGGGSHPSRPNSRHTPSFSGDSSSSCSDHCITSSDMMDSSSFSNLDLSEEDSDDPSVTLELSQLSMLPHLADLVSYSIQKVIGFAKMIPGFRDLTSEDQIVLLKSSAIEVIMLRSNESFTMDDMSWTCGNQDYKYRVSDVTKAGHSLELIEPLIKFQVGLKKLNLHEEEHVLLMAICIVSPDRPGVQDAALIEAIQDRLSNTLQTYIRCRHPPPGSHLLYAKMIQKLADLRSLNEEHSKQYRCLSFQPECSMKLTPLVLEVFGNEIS
From the text: In order to measure the activation of the vitamin D receptor (VDR) by vitamin D analogs in cells a transcription activation assay was used. COS cells were cotransfected with the human VDR (expressed in pSG5) and a reporter gene containing three response elements (VDRE3) from the rat osteocalcine gene, the thymidine kinase basal promoter, and the luciferase reporter gene, respectively.

[2] = The Mouse Model: epidermal thickening (acanthosis) in hairless mice; details: mouse, in vivo, po
[3] = test system: epidermal thickening (acanthosis) in hairless mice; assay: as above; details: for ED50: Mus musculus, po, read-out: ED50: dose causing half-maximal epidermal thickening; for ratio (TI) HTD/ED50: HTDpo/ED50
[4] = Calcium Liability (Tolerance Test in Mice); details: for MTD: mouse, in vivo, sc; for HTD/VDR: ratio HTDsc mouse (μg/kg) / VDR act ED50 (nanomolar)
From the text: 1. Calcium Liability (Tolerance Test in Mice)
This test gives a global picture of calcemic liability. Profound changes in calcium homeostasis strongly affect the weight development of the animals. This parameter was used as a primary test for tolerance. […] Body weight was registered just before and at the end of a 5 day treatment period.

[5] = test system: epidermal proliferation in minipigs; assay: animal or person; details: for minimal effective dose: Sus scrofa, 168 h, read-out: Effective dose (dose that increases the normal LI at least 50%); for minimal effective dose / Calcemic dose: po; for Calcemic dose: minipig, in vivo, 10080 min; for TI (ratio Calc./Eff.): oral, calcemic dose / effective dose
Method: Orally administered vitamin D analogs can lead to epidermal proliferation in minipigs. This skin effect is considered as indicative for an antipsoriatic potential of vitamin D analogs. […] The pigs were daily observed as to adverse effects such as behavior, mobility, stool. At day seven bromodeoxyuridine (4 mg/kg) was injected intravenously into the treated pigs and 2 hours later skin biopsies (6 mm diameter) and blood were taken for analysis. The skin biopsies were fixed in formalin, and paraffin sections were prepared using standard procedures. Using standard immuno-histochemical techniques, cells in the S-phase (DNA synthesis phase) were labelled by the binding of a specific monoclonal antibody against the thymidine analogue bromodeoxyuridine. The number of labelled epidermal cells per unit of length along the surface was taken as a measure of epidermal proliferative activity (labelings index LI). Clinical chemistry was performed using Cobas Mira.
*The effective dose is the dose that increases the normal LI at least 50%

[6] = in vivo; details: mouse, po

| SMILES | pEC50 [1] | MTD [2] [mg/kg] | ED50 [3] [mg/kg] | ratio (TI) HTD/ED50 ([3]; hairless mice, oral) | MTD [4] [mg/kg] | HTD/VDR [4] | minimal effective dose [5] [mg/kg] | Calcemic dose [5] [mg/kg] | TI (ratio Calc./Eff.) ([5]; minipigs) | epidermal hyperproliferation (in words) ([5]; minipigs, even at 9 times the dose that induces hypercalcemia) | skin effects at the highest tolerated dose (in words) ([3]; hairless mice, oral, calcitriol animals treated for three days) | MTD [6] [mg/kg] |
| --- | --- | --- | --- | --- | --- | --- | --- | --- | --- | --- | --- | --- |
| C=C1/C(=C\C=C\CCCC(C)(C)C/C=C/C(O)(C(F)(F)F)C(F)(F)F)C[C@@H](O)C[C@@H]1O [C, (Z)-(1R,3S)-5-((2E,9E)-12,12,12-trifluoro-11-trifluoromethyl-11-hydroxy-7,7-dimethyl-dodec-2,9-dienylidene)-4-methylene-cyclohexane-1,3-diol] | 8.40 | 0.06 | 0.45 | 0.13 | 0.2 | 50 | – | – | – | – | – | – |
| C=C1/C(=C\C=C\CCCC(C)(C)CCCC(O)(C(F)(F)F)C(F)(F)F)C[C@@H](O)C[C@@H]1O [F, (Z)-(1R,3S)-5-[(2E)-12,12,12-trifluoro-11-hydroxy-7,7-dimethyl-11-trifluoromethyl-dodec-2-enylidene]-4-methylene-cyclohexane-1,3-diol] | 8.40 | 0.08 | 0.2 | 0.4 | 0.08 | 20 | 0.003 | 0.015 | 5 | – | – | – |
| CC(C)(O)CCCC(C)(C)CCC/C=C/C=C1C[C@@H](O)C[C@H](O)C1 [H, (2E)-(1R,3R)-5-(11-hydroxy-7,7,11-trimethyl-dodeca-2-enylidene)-cyclohexane-1,3-diol] | 6.55 | – | – | – | > 5 | 18 | – | – | – | – | – | – |
| C=C1/C(=C\C=C\CCCC(C)(C)CC#CC(O)(C(F)(F)F)C(F)(F)F)C[C@@H](O)C[C@@H]1O [J, (Z)-(1R,3S)-4-methylene-5-[(E)-12,12,12-trifluoro-11-hydroxy-7,7-dimethyl-11-trifluoromethyl-dodec-2-en-9-ynylidene]-cyclohexane-1,3-diol] | 8.32 | 0.07 | 0.7 | 0.1 | 0.31 | 65 | 0.108 | > 0.324 | > 3 | – | – | – |
| CC(C)(C/C=C/C(O)(C(F)(F)F)C(F)(F)F)CCC/C=C/C=C1C[C@@H](O)C[C@H](O)C1 [D, (1R,3R)-5-[(2E,9E)-12,12,12-trifluoro-11-trifluoromethyl-11-hydroxy-7,7-dimethyl-dodeca-2,9-dienylidene]-cyclohexane-1,3-diol] | 8.24 | 0.05 | 0.5 | 0.1 | 0.1 | 18 | – | – | – | – | – | – |
| CC(C)(C/C=C\C(O)(C(F)(F)F)C(F)(F)F)CCC/C=C/C=C1C[C@@H](O)C[C@H](O)C1 [A, (1R,3R)-5-[(2E,9Z)-12,12,12-trifluoro-11-hydroxy-7,7-dimethyl-11-trifluoromethyl-dodeca-2,9-dienylidene)-cyclohexane-1,3-diol] | 6.74 | 1 | 7.5 | 0.13 | 2.5 | 14 | 0.1 | 5 | 50 | – | – | – |
| C=C1/C(=C\C=C\CCCC(C)(C)C/C=C\C(O)(C(F)(F)F)C(F)(F)F)C[C@@H](O)C[C@@H]1O [B, (Z)-(1R,3S)-4-methylene-5-[(2E,9Z)-12,12,12-trifluoro-11-hydroxy-7,7-dimethyl-11-trifluoromethyl-dodeca-2,9-dienylidene]-cyclohexane-1,3-diol] | 7.30 | 0.4 | 3 | 0.13 | 3 | 60 | 1 | 2 | 2 | – | – | – |
| CC(C)(CCC/C=C/C=C1C[C@@H](O)C[C@H](O)C1)CCCC(O)(C(F)(F)F)C(F)(F)F [Compound E, (1R,3R)-5-[(2E)-12,12,12-trifluoro-11-hydroxy-7,7-dimethyl-11-trifluoromethyl-dodec-2-enylidene)-cyclohexane-1,3-diol] | 8.18 | 0.04 | 0.2 | 0.2 | 0.1 | 15 | – | – | – | – | – | – |
| CC(C)(O)C#CCC(C)(C)CCC/C=C/C=C1C[C@@H](O)C[C@H](O)C1 [K, (10E)-(3R,5R)-12-(3,5-dihydroxy-cyclohexylidene)-6,6-dimethyl-2-methyl-dodec-10-en-3-yn-2-ol] | 6.66 | – | – | – | > 5 | > 23 | – | – | – | – | – | – |
| C=C1/C(=C\C=C2/CCC[C@]3(C)[C@@H]([C@H](C)CCCC(C)(C)O)CC[C@@H]23)C[C@@H](O)C[C@@H]1O [Calcitriol, reference compound] | – | – | 0.5 | – | – | – | > 0.0225 | 0.003 | – | did not induce hyperproliferation | not able to elicit skin effects | – |
| CC(C)(CC#CC(O)(C(F)(F)F)C(F)(F)F)CCC/C=C/C=C1C[C@@H](O)C[C@H](O)C1 [I, (E)-(1R,3R)-5-[12,12,12-trifluoro-11-hydroxy-7,7-dimethyl-11-trifluoromethyl-dodec-2-en-9-ynylidene]-cyclohexane-1,3-diol] | 7.89 | 0.1 | 0.8 | 0.125 | 0.333 | 26 | 0.036 | 0.2 | 6 | – | – | – |
| C=C1/C(=C\C=C\CCCC(C)(C)CCCC(C)(C)O)C[C@@H](O)C[C@@H]1O [G, (Z)-(1R,3S)-5-[(E)-11-hydroxy-7,7,11-trimethyl-dodec-2-enylidene]-4-methylene-cyclohexane-1,3-diol] | 6.96 | – | 60 | 0.33 | > 5 | 45 | – | – | – | – | – | 20 |
